Source: ChEMBL document CHEMBL1148995, “Antitumor agents from bohemic acid complex, VI. Schaunardimycin” (J Nat Prod, 1984)

Experiments:
L1210 [1] = test: Antitumor activity against mouse L1210 cells implanted in CDF1 mouse at 0.4 mg/kg, ip single dose on day 1 relative to control; type: functional; settings: route intraperitoneal
L1210 [2] = test: Antitumor activity against mouse L1210 cells implanted in CDF1 mouse assessed as median survival time at 1.6 mg/kg, ip single dose on day 1; type: functional; settings: route intraperitoneal
L1210 [3] = test: Antitumor activity against mouse L1210 cells implanted in CDF1 mouse assessed as median survival time at 6.4 mg/kg, ip single dose on day 1; type: functional; settings: route intraperitoneal
L1210 [4] = test: Antitumor activity against mouse L1210 cells implanted in CDF1 mouse assessed as median survival time at 3.2 mg/kg, ip single dose on day 1; type: functional; settings: route intraperitoneal
Mus musculus [5] = test: Toxicity in mouse L1210 cells implanted CDF1 mouse assessed as survivors on day 5 at 6.4 mg/kg, ip single dose on day 1; type: organism-based; design: dose 6.4 mg/kg, route intraperitoneal; settings: in vivo
L1210 [6] = test: Antitumor activity against mouse L1210 cells implanted in CDF1 mouse at 0.2 mg/kg, ip single dose on day 1 relative to control; type: functional; settings: route intraperitoneal
L1210 [7] = test: Antitumor activity against mouse L1210 cells implanted in CDF1 mouse at 0.8 mg/kg, ip single dose on day 1 relative to control; type: functional; settings: route intraperitoneal
Mus musculus [8] = test: Toxicity in mouse L1210 cells implanted CDF1 mouse assessed as median survival time at 25.6 mg/kg, ip single dose on day 1; type: organism-based; design: dose 25.6 mg/kg, route intraperitoneal; settings: in vivo
Mus musculus [9] = test: Toxicity in mouse L1210 cells implanted CDF1 mouse assessed as average weight gain at 12.8 mg/kg, ip single dose on day 1; type: organism-based; design: dose 12.8 mg/kg, route intraperitoneal; settings: in vivo
L1210 [10] = test: Antitumor activity against mouse L1210 cells implanted in CDF1 mouse at 3.2 mg/kg, ip single dose on day 1 relative to control; type: functional; settings: route intraperitoneal
Mus musculus [11] = test: Toxicity in mouse L1210 cells implanted CDF1 mouse assessed as survivors on day 5 at 3.2 mg/kg, ip single dose on day 1; type: organism-based; design: dose 3.2 mg/kg, route intraperitoneal; settings: in vivo
Mus musculus [12] = test: Toxicity in mouse L1210 cells implanted CDF1 mouse assessed as average weight gain at 0.8 mg/kg, ip single dose on day 1; type: organism-based; design: dose 0.8 mg/kg, route intraperitoneal; settings: in vivo
L1210 [13] = test: Antitumor activity against mouse L1210 cells implanted in CDF1 mouse assessed as median survival time at 0.8 mg/kg, ip single dose on day 1; type: functional; settings: route intraperitoneal
L1210 [14] = test: Antitumor activity against mouse L1210 cells implanted in CDF1 mouse assessed as median survival time at 0.2 mg/kg, ip single dose on day 1; type: functional; settings: route intraperitoneal
Mus musculus [15] = test: Toxicity in mouse L1210 cells implanted CDF1 mouse assessed as average weight gain at 3.2 mg/kg, ip single dose on day 1; type: organism-based; design: dose 3.2 mg/kg, route intraperitoneal; settings: in vivo
Mus musculus [16] = test: Toxicity in mouse L1210 cells implanted CDF1 mouse assessed as average weight gain at 0.4 mg/kg, ip single dose on day 1; type: organism-based; design: dose 0.4 mg/kg, route intraperitoneal; settings: in vivo
L1210 [17] = test: Antitumor activity against mouse L1210 cells implanted in CDF1 mouse assessed as median survival time at 0.4 mg/kg, ip single dose on day 1; type: functional; settings: route intraperitoneal
L1210 [18] = test: Antitumor activity against mouse L1210 cells implanted in CDF1 mouse assessed as median survival time at 12.8 mg/kg, ip single dose on day 1; type: functional; settings: route intraperitoneal
L1210 [19] = test: Antitumor activity against mouse L1210 cells implanted in CDF1 mouse at 6.4 mg/kg, ip single dose on day 1 relative to control; type: functional; settings: route intraperitoneal
L1210 [20] = test: Antitumor activity against mouse L1210 cells implanted in CDF1 mouse at 1.6 mg/kg, ip single dose on day 1 relative to control; type: functional; settings: route intraperitoneal
Mus musculus [21] = test: Toxicity in mouse L1210 cells implanted CDF1 mouse assessed as average weight gain at 1.6 mg/kg, ip single dose on day 1; type: organism-based; design: dose 1.6 mg/kg, route intraperitoneal; settings: in vivo
Mus musculus [22] = test: Toxicity in mouse L1210 cells implanted CDF1 mouse assessed as survivors on day 5 at 0.4 mg/kg, ip single dose on day 1; type: organism-based; design: dose 0.4 mg/kg, route intraperitoneal; settings: in vivo
L1210 [23] = test: Antitumor activity against mouse L1210 cells implanted in CDF1 mouse at 0.2 mg/kg, ip qd for 1 to 5 days relative to control; type: functional; settings: route intraperitoneal
L1210 [24] = test: Antitumor activity against mouse L1210 cells implanted in CDF1 mouse at 12.8 mg/kg, ip single dose on day 1 relative to control; type: functional; settings: route intraperitoneal
Mus musculus [25] = test: Toxicity in mouse L1210 cells implanted CDF1 mouse assessed as average weight gain at 6.4 mg/kg, ip single dose on day 1; type: organism-based; design: dose 6.4 mg/kg, route intraperitoneal; settings: in vivo
Mus musculus [26] = test: Toxicity in mouse L1210 cells implanted CDF1 mouse assessed as survivors on day 5 at 0.8 mg/kg, ip single dose on day 1; type: organism-based; design: dose 0.8 mg/kg, route intraperitoneal; settings: in vivo
Mus musculus [27] = test: Toxicity in mouse L1210 cells implanted CDF1 mouse assessed as survivors on day 5 at 1.6 mg/kg, ip single dose on day 1; type: organism-based; design: dose 1.6 mg/kg, route intraperitoneal; settings: in vivo
Mus musculus [28] = test: Toxicity in mouse L1210 cells implanted CDF1 mouse assessed as average weight gain at 0.2 mg/kg, ip single dose on day 1; type: organism-based; design: dose 0.2 mg/kg, route intraperitoneal; settings: in vivo

Compound: CC[C@@]1(O)C[C@H](O[C@H]2C[C@H](N(C)C)[C@H](O[C@H]3C[C@H](O)[C@H](O[C@H]4C[C@H](O)[C@H](O)[C@H](C)O4)[C@H](C)O3)[C@H](C)O2)c2c(cc3c(c2O)C(=O)c2c(O)ccc(O)c2C3=O)[C@H]1C(=O)OC [MARCELLOMYCIN]
- T/C (L1210 [1]): 108%
- MST (L1210 [2]): 8 days
- MST (L1210 [3]): 8.5 days
- MST (L1210 [4]): 8.5 days
- Activity (Mus musculus [5]): Active
- T/C (L1210 [6]): 100%
- T/C (L1210 [7]): 117%
- Activity (Mus musculus [8]): Toxic
- Activity (Mus musculus [9]): -1.9 g
- T/C (L1210 [10]): 142%
- Activity (Mus musculus [11]): Active
- weight gain (Mus musculus [12]): 1.8 g
- MST (L1210 [13]): 7 days
- MST (L1210 [14]): 6 days
- Activity (Mus musculus [15]): -0.5 g
- weight gain (Mus musculus [16]): 2.8 g
- MST (L1210 [17]): 6.5 days
- MST (L1210 [18]): 9.5 days
- T/C (L1210 [19]): 142%
- T/C (L1210 [20]): 133%
- weight gain (Mus musculus [21]): 1.4 g
- Activity (Mus musculus [22]): Active
- T/C (L1210 [23]): 117%
- T/C (L1210 [24]): 158%
- Activity (Mus musculus [25]): -1.7 g
- Activity (Mus musculus [26]): Active
- Activity (Mus musculus [27]): Active
- weight gain (Mus musculus [28]): 2.7 g
